{"source": "PubChem BioAssay (NCI)", "assay_in_all_cases": "NCI anticancer screen, dose series, 48 h", "key": {"KM12 colon": {"system": "KM12 colon"}, "SF-268 CNS": {"system": "SF-268 CNS"}, "SR leukemia": {"system": "SR leukemia"}, "A498 renal": {"system": "A498 renal"}, "MDA-MB-435": {"system": "MDA-MB-435"}, "SN12C renal": {"system": "SN12C renal"}, "CCRF-CEM leukemia": {"system": "CCRF-CEM leukemia"}, "BT-549 breast": {"system": "BT-549 breast"}, "UO-31 renal": {"system": "UO-31 renal"}, "UACC-257 melanoma": {"system": "UACC-257 melanoma"}, "RPMI-8226 leukemia": {"system": "RPMI-8226 leukemia"}, "EKVX NSCLC": {"system": "EKVX NSCLC"}, "ACHN renal": {"system": "ACHN renal"}, "NCI-H23 lung": {"system": "NCI-H23 lung"}, "OVCAR-8 ovarian": {"system": "OVCAR-8 ovarian"}, "SK-MEL-28 melanoma": {"system": "SK-MEL-28 melanoma"}, "HL-60(TB) leukemia": {"system": "HL-60(TB) leukemia"}, "SNB-19 CNS": {"system": "SNB-19 CNS"}, "MDA-N": {"system": "MDA-N"}, "HCC-2998 colon": {"system": "HCC-2998 colon"}, "OVCAR-4 ovarian": {"system": "OVCAR-4 ovarian"}, "SNB-75 CNS": {"system": "SNB-75 CNS"}, "HOP-92 NSCLC": {"system": "HOP-92 NSCLC"}, "UACC-62 melanoma": {"system": "UACC-62 melanoma"}, "NCI/ADR-RES ovarian": {"system": "NCI/ADR-RES ovarian"}, "NCI-H460 lung": {"system": "NCI-H460 lung"}, "TK-10 renal": {"system": "TK-10 renal"}, "CAKI-1 renal": {"system": "CAKI-1 renal"}, "U251 CNS": {"system": "U251 CNS"}, "MOLT-4 leukemia": {"system": "MOLT-4 leukemia"}, "NCI-H226 lung": {"system": "NCI-H226 lung"}, "MDA-MB-231 breast": {"system": "MDA-MB-231 breast"}, "HCT-15 colon": {"system": "HCT-15 colon"}, "SF-295 CNS": {"system": "SF-295 CNS"}, "M14 melanoma": {"system": "M14 melanoma"}, "SF-539 CNS": {"system": "SF-539 CNS"}, "LOX IMVI melanoma": {"system": "LOX IMVI melanoma"}, "SK-MEL-5 melanoma": {"system": "SK-MEL-5 melanoma"}, "IGROV1 ovarian": {"system": "IGROV1 ovarian"}, "OVCAR-5 ovarian": {"system": "OVCAR-5 ovarian"}, "DU-145 prostate": {"system": "DU-145 prostate"}, "MALME-3M melanoma": {"system": "MALME-3M melanoma"}, "HCT-116 colon": {"system": "HCT-116 colon"}, "OVCAR-3 ovarian": {"system": "OVCAR-3 ovarian"}, "T-47D breast": {"system": "T-47D breast"}, "COLO 205 colon": {"system": "COLO 205 colon"}, "A549 NSCLC": {"system": "A549 NSCLC"}, "PC-3 prostate": {"system": "PC-3 prostate"}, "786-0 renal": {"system": "786-0 renal"}, "SK-OV-3 ovarian": {"system": "SK-OV-3 ovarian"}, "RXF 393 renal": {"system": "RXF 393 renal"}, "K-562 leukemia": {"system": "K-562 leukemia"}, "HOP-62 NSCLC": {"system": "HOP-62 NSCLC"}, "HT29 colon": {"system": "HT29 colon"}, "MCF7 breast": {"system": "MCF7 breast"}, "SW-620 colon": {"system": "SW-620 colon"}, "HS 578T breast": {"system": "HS 578T breast"}}, "note": "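1) Cells in 96-well plates. 2) Compound, 48 h, 5 concentrations. 3) Linear interpolation between surrounding doses. 4) Unreached endpoint = highest concentration. TGI is the concentration that stops growth completely.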"}
{"smiles": "CC1(C)/C(=N\\O)C2(OS(=O)(=O)C(F)(F)F)CCC1C2", "note": "(configuration not stated)", "values": [{"measurement": "TGI", "setting": "KM12 colon", "value": "> 100", "unit": "µM"}, {"measurement": "TGI", "setting": "SF-268 CNS", "value": "> 100", "unit": "µM"}, {"measurement": "TGI", "setting": "SR leukemia", "value": "> 100", "unit": "µM"}, {"measurement": "TGI", "setting": "A498 renal", "value": "> 100", "unit": "µM"}, {"measurement": "TGI", "setting": "MDA-MB-435", "value": "> 100", "unit": "µM"}, {"measurement": "TGI", "setting": "SN12C renal", "value": "> 100", "unit": "µM"}, {"measurement": "TGI", "setting": "CCRF-CEM leukemia", "value": "> 100", "unit": "µM"}, {"measurement": "TGI", "setting": "BT-549 breast", "value": "> 100", "unit": "µM"}, {"measurement": "TGI", "setting": "UO-31 renal", "value": "> 100", "unit": "µM"}, {"measurement": "TGI", "setting": "UACC-257 melanoma", "value": "> 100", "unit": "µM"}, {"measurement": "TGI", "setting": "RPMI-8226 leukemia", "value": "> 100", "unit": "µM"}, {"measurement": "TGI", "setting": "EKVX NSCLC", "value": "> 100", "unit": "µM"}, {"measurement": "TGI", "setting": "ACHN renal", "value": "> 100", "unit": "µM"}, {"measurement": "TGI", "setting": "NCI-H23 lung", "value": "> 100", "unit": "µM"}, {"measurement": "TGI", "setting": "OVCAR-8 ovarian", "value": "> 100", "unit": "µM"}, {"measurement": "TGI", "setting": "SK-MEL-28 melanoma", "value": "> 100", "unit": "µM"}, {"measurement": "TGI", "setting": "HL-60(TB) leukemia", "value": "> 100", "unit": "µM"}, {"measurement": "TGI", "setting": "SNB-19 CNS", "value": "> 100", "unit": "µM"}, {"measurement": "TGI", "setting": "MDA-N", "value": "> 100", "unit": "µM"}, {"measurement": "TGI", "setting": "HCC-2998 colon", "value": "> 100", "unit": "µM"}, {"measurement": "TGI", "setting": "OVCAR-4 ovarian", "value": "> 100", "unit": "µM"}, {"measurement": "TGI", "setting": "SNB-75 CNS", "value": "> 100", "unit": "µM"}, {"measurement": "TGI", "setting": "HOP-92 NSCLC", "value": "> 100", "unit": "µM"}, {"measurement": "TGI", "setting": "UACC-62 melanoma", "value": "> 100", "unit": "µM"}, {"measurement": "TGI", "setting": "NCI/ADR-RES ovarian", "value": "> 100", "unit": "µM"}, {"measurement": "TGI", "setting": "NCI-H460 lung", "value": "> 100", "unit": "µM"}, {"measurement": "TGI", "setting": "TK-10 renal", "value": "> 100", "unit": "µM"}, {"measurement": "TGI", "setting": "CAKI-1 renal", "value": "> 100", "unit": "µM"}, {"measurement": "TGI", "setting": "U251 CNS", "value": "> 100", "unit": "µM"}, {"measurement": "TGI", "setting": "MOLT-4 leukemia", "value": "> 100", "unit": "µM"}, {"measurement": "TGI", "setting": "NCI-H226 lung", "value": "> 100", "unit": "µM"}, {"measurement": "TGI", "setting": "MDA-MB-231 breast", "value": "> 100", "unit": "µM"}, {"measurement": "TGI", "setting": "HCT-15 colon", "value": "> 100", "unit": "µM"}]}
{"smiles": "CCCCCCCCCCCCc1ccc(S(=O)(=O)O)cc1.[Cu+2]", "values": [{"measurement": "TGI", "setting": "KM12 colon", "value": "> 100", "unit": "µM"}, {"measurement": "TGI", "setting": "SF-268 CNS", "value": "> 100", "unit": "µM"}, {"measurement": "TGI", "setting": "SF-295 CNS", "value": "> 100", "unit": "µM"}, {"measurement": "TGI", "setting": "M14 melanoma", "value": "> 100", "unit": "µM"}, {"measurement": "TGI", "setting": "SF-539 CNS", "value": "> 100", "unit": "µM"}, {"measurement": "TGI", "setting": "A498 renal", "value": "> 100", "unit": "µM"}, {"measurement": "TGI", "setting": "MDA-MB-435", "value": "> 100", "unit": "µM"}, {"measurement": "TGI", "setting": "SN12C renal", "value": "> 100", "unit": "µM"}, {"measurement": "TGI", "setting": "CCRF-CEM leukemia", "value": "> 100", "unit": "µM"}, {"measurement": "TGI", "setting": "LOX IMVI melanoma", "value": "> 100", "unit": "µM"}, {"measurement": "TGI", "setting": "SK-MEL-5 melanoma", "value": "> 100", "unit": "µM"}, {"measurement": "TGI", "setting": "UO-31 renal", "value": "> 100", "unit": "µM"}, {"measurement": "TGI", "setting": "UACC-257 melanoma", "value": "> 100", "unit": "µM"}, {"measurement": "TGI", "setting": "RPMI-8226 leukemia", "value": "> 100", "unit": "µM"}, {"measurement": "TGI", "setting": "IGROV1 ovarian", "value": "> 100", "unit": "µM"}, {"measurement": "TGI", "setting": "OVCAR-5 ovarian", "value": "> 100", "unit": "µM"}, {"measurement": "TGI", "setting": "EKVX NSCLC", "value": "> 100", "unit": "µM"}, {"measurement": "TGI", "setting": "DU-145 prostate", "value": "> 100", "unit": "µM"}, {"measurement": "TGI", "setting": "ACHN renal", "value": "> 100", "unit": "µM"}, {"measurement": "TGI", "setting": "MALME-3M melanoma", "value": "> 100", "unit": "µM"}, {"measurement": "TGI", "setting": "NCI-H23 lung", "value": "> 100", "unit": "µM"}, {"measurement": "TGI", "setting": "OVCAR-8 ovarian", "value": "> 100", "unit": "µM"}, {"measurement": "TGI", "setting": "HCT-116 colon", "value": "> 100", "unit": "µM"}, {"measurement": "TGI", "setting": "SK-MEL-28 melanoma", "value": "> 100", "unit": "µM"}, {"measurement": "TGI", "setting": "HL-60(TB) leukemia", "value": "> 100", "unit": "µM"}, {"measurement": "TGI", "setting": "SNB-19 CNS", "value": "> 100", "unit": "µM"}, {"measurement": "TGI", "setting": "MDA-N", "value": "> 100", "unit": "µM"}, {"measurement": "TGI", "setting": "OVCAR-3 ovarian", "value": "> 100", "unit": "µM"}, {"measurement": "TGI", "setting": "HCC-2998 colon", "value": "> 100", "unit": "µM"}, {"measurement": "TGI", "setting": "T-47D breast", "value": "> 100", "unit": "µM"}, {"measurement": "TGI", "setting": "OVCAR-4 ovarian", "value": "> 100", "unit": "µM"}, {"measurement": "TGI", "setting": "SNB-75 CNS", "value": "> 100", "unit": "µM"}, {"measurement": "TGI", "setting": "HOP-92 NSCLC", "value": "> 100", "unit": "µM"}, {"measurement": "TGI", "setting": "UACC-62 melanoma", "value": "> 100", "unit": "µM"}, {"measurement": "TGI", "setting": "COLO 205 colon", "value": "> 100", "unit": "µM"}, {"measurement": "TGI", "setting": "A549 NSCLC", "value": "> 100", "unit": "µM"}, {"measurement": "TGI", "setting": "NCI/ADR-RES ovarian", "value": "> 100", "unit": "µM"}, {"measurement": "TGI", "setting": "PC-3 prostate", "value": "> 100", "unit": "µM"}, {"measurement": "TGI", "setting": "NCI-H460 lung", "value": "> 100", "unit": "µM"}, {"measurement": "TGI", "setting": "786-0 renal", "value": "> 100", "unit": "µM"}, {"measurement": "TGI", "setting": "SK-OV-3 ovarian", "value": 22.8, "unit": "µM"}, {"measurement": "TGI", "setting": "TK-10 renal", "value": "> 100", "unit": "µM"}, {"measurement": "TGI", "setting": "RXF 393 renal", "value": "> 100", "unit": "µM"}, {"measurement": "TGI", "setting": "CAKI-1 renal", "value": "> 100", "unit": "µM"}, {"measurement": "TGI", "setting": "K-562 leukemia", "value": "> 100", "unit": "µM"}, {"measurement": "TGI", "setting": "U251 CNS", "value": "> 100", "unit": "µM"}, {"measurement": "TGI", "setting": "HOP-62 NSCLC", "value": "> 100", "unit": "µM"}, {"measurement": "TGI", "setting": "HT29 colon", "value": "> 100", "unit": "µM"}, {"measurement": "TGI", "setting": "MOLT-4 leukemia", "value": "> 100", "unit": "µM"}, {"measurement": "TGI", "setting": "MCF7 breast", "value": "> 100", "unit": "µM"}, {"measurement": "TGI", "setting": "SW-620 colon", "value": "> 100", "unit": "µM"}, {"measurement": "TGI", "setting": "HS 578T breast", "value": "> 100", "unit": "µM"}, {"measurement": "TGI", "setting": "MDA-MB-231 breast", "value": "> 100", "unit": "µM"}, {"measurement": "TGI", "setting": "HCT-15 colon", "value": "> 100", "unit": "µM"}]}
